Data on 4 compounds can be found in US20110038796A1, “Method of Nuclear Medical Photography Using Dual-Isotopes” (ATOMIC ENERGY COUNCIL-INSTITUTE OF NUCLEAR ENERGY RESEARCH, priority 2009, published 2011).

Where a name gives a salt, the structure may show the parent alone.

The test system of assay [1] is dopamine transporter. Nature of the assay: SPECT with [^99mTc]TRODAT-1 (single-isotope or dual-isotopes), specific uptake ratio in striatum. The format is in vivo, Macaca Cyclopis. Here is the method: (§1) Please refer to FIG. 1, which is a flow view showing a preferred embodiment according to the present disclosure. As shown in the figure, the present disclosure is a method of nuclear medical photography using dual-isotopes, where effect of using dual isotopes on diagnosing anomalies of dopamine and serotonin in primate's brain is evaluated. The present disclosure comprises the following steps: (a) Obtaining control group 11: A control group is obtained, comprising at least one first individual applied with an imaging agent of single-isotope of [^99mTc]TRODAT-1 for dopamine transporter; at least one second individual applied with an imaging agent of single-isotope of [^123I]ADAM for serotonin transporter; and at least one third individual applied with imaging agents of dual-isotopes of [^99mTc]TRODAT-1 and [^123I]ADAM. Therein, the individuals are non-human primates, like Macaca Cyclopis.
(§2) (b) Taking photos for control group 12: Photos of the first to the third individuals in the control group are taken through single photon emission computed tomography (SPECT). Therein, on taking the photo of the first individual applied with the single-isotope of [^99mTc]TRODAT-1, 90 mg/ml of KClO4 is applied to the first individual at first; and, then, after 20 minutes, 740 MBq (20 mCi) of [^99mTc]TRODAT-1 is injected from intravenous. After [^99mTc]TRODAT-1 is injected, a SPECT device equipped with dual-headed gamma cameras (Hawkeye, Millennium VG, General Elecral Medical System, Milwaukee, Wis. USA) coordinated with fan-beam collimators is used to take photos, where 15 dynamic sequence of brain images are taken during 30 minutes (2 min/frame). Therein, an energy window is set between 126 Kev and 154 Kev; data of 128×128 pixel-matrice are fetched; each photo are enlarged for 1.6 times; a photo is taken for each 3° from 360°; and, each of the two detectors is responsible for taking photos for 180°. After data are collected and processed through Metz filter with attenuation calibration, three three-dimensional (3D) photos of coronal, sagittal and transaxial sections are formed. On taking the photo of the second individual applied with the single-isotope of [^123I]ADAM, 185 MBq (5 mCi) of [^123I]ADAM is injected from intravenous; and, an energy window is set between 143 Kev and 175 Kev. On taking the photo of the third individual applied with the dual-isotopes, 90 mg/ml of KClO4 is applied to the […] at first; and, after 20 minutes, 740 MBq (20 mCi) of [^99mTc]TRODAT-1 and 185 MBq (5 mCi) of [^123I]ADAM are injected from intravenous almost simultaneously. Therein, an energy window for [^99mTc]TRODAT-1 is set between 129 Kev and 151 Kev and another energy window for [^123I]ADAM is set between 159 Kev and 175 Kev.
(§3) (c) Analyzing photos of control group 13: Magnetic resonance imaging (MRI) photos of the first to the third individuals are taken to provide reference information for the following analysis:
(§4) (c3) Analysis on dual-isotopes: The photo of the third individual applied with the dual-isotopes of [^123I]ADAM and [^99mTc]TRODAT-1 obtained in step (b) are processed through visual interpretation to figure out an SUR of [^99mTc]TRODAT-1 in striatum and an SUR of [^123I]ADAM in midbrain, thalamus, striatum and frontal cortex.

The target in assay [2] is dopamine transporter (Homo sapiens, UniProt Q01959). The following applies: cited from earlier work.
Chain of dopamine transporter (Homo sapiens, UniProt Q01959) (Q01959 whole entry): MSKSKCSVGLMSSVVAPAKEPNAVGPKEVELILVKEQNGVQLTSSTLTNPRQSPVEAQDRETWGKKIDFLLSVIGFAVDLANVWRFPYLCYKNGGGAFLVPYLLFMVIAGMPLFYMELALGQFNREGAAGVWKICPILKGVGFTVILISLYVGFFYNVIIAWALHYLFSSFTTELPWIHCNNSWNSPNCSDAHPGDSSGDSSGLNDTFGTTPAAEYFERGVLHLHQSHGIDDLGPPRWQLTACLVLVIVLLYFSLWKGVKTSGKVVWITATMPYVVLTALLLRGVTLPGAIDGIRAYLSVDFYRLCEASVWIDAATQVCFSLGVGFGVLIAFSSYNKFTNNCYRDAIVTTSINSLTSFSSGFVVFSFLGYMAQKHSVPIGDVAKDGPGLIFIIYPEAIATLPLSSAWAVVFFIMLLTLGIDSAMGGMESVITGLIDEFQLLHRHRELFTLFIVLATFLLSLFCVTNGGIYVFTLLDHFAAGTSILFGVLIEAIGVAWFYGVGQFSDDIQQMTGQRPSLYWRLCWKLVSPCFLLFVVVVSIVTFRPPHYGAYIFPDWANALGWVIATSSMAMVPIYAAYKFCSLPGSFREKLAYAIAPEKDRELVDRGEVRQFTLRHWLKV
For a further assay, the system named is serotonin transporter. The assay can be described thus: SPECT with [^123I]ADAM (single-isotope or dual-isotopes), specific uptake ratio in brain regions. It counts as in vivo, Macaca Cyclopis. Here is the method: as §1, §2, §3
(c1) Analysis on [^123I]ADAM: The photo of the […] individual applied with the single-isotope of [^123I]ADAM obtained in step (b) are processed through visual interpretation to pick out regions of interest (ROI) abundant in serotonin transporter, like midbrain, thalamus, striatum and frontal cortex; and a region lack of serotonin transporter, like cerebellum, is set as background. Mean counts per pixel (MCPP) of the ROIs are deducted with MCPPs of the background and then are divided by the MCPPs of the background to figure out a specific uptake ratios (SUR) of the single-isotope of [^123I]ADAM.
as §4

The mark [3] stands for this setting: 180 to 210 minutes after injection.

On to `CN1[C@H]2CC[C@@H]1[C@@H](CN(CC[S-])CC[N-]CC[S-])[C@@H](c1ccc(Cl)cc1)C2.[O]=[99Tc+4]` [[^99mTc]TRODAT-1], for which the “[^99mTc]TRODAT-1 SUR of striatum, single-isotope versus dual-isotopes” value with dopamine transporter [1] (setting [3]) is “no big difference”. Besides, the “time to reach the highest binding level after injection” value at dopamine transporter [2] is given as “within two hours”.

With `CN(C)Cc1ccccc1Sc1ccc([123I])cc1N` [[^123I]ADAM], the “[^123I]ADAM photos, single-isotope versus dual-isotopes” value in the assay on serotonin transporter (setting [3]) is recorded as “no big difference”. Moreover, the “binding of [^123I]ADAM in brain regions (SPECT photos)” value in the assay on serotonin transporter (180 to 210 minutes after injection, midbrain, thalamus and striatum, single-isotope or dual-isotopes) is listed as “bound to regions abundant in serotonin transporter”. Also, the “[^123I]ADAM SURs, single-isotope versus dual-isotopes” value in the assay with serotonin transporter (striatum, thalamus, midbrain and frontal cortex) is listed as “no big difference”.

Turning to `CNCCC(Oc1ccc(C(F)(F)F)cc1)c1ccccc1` (stereo not drawn) [fluoxetine], the “[^99mTc]TRODAT-1 SURs after pretreatment with fluoxetine” value in the assay with dopamine transporter [1] (dual-isotopes, 180 to 210 minutes after injection, pretreated with fluoxetine for 16 hours) is “no big changes”. Besides, the “uptakes of [^99mTc]TRODAT-1 of striatum after pretreatment with fluoxetine versus not pretreated (conclusion)” value in the assay on dopamine transporter [1] (pretreated with fluoxetine for 16 hours) is listed as “no big difference”.

As for `COC(=O)C(c1ccccc1)C1CCCCN1` (stereo not drawn) [methylphenidate HCl], the “uptakes of [^99mTc]TRODAT-1 of striatum after pretreatment with methylphenidate HCl (conclusion)” value with dopamine transporter [1] (dual-isotopes) was “obviously reduced”. The “[^99mTc]TRODAT-1 SURs after pretreatment with methylphenidate HCl” value in the assay on dopamine transporter [1] (dual-isotopes, 180 to 210 minutes after injection, methylphenidate HCl 1 mg/kg 10 minutes before) is reported as “greatly lowered”. The “uptakes of [^123I]ADAM after pretreatment with methylphenidate HCl versus not pretreated” value in the assay with serotonin transporter (midbrain, striatum, thalamus and frontal cortex, dual-isotopes, 180 to 210 minutes after injection, methylphenidate HCl 1 mg/kg) is “no big difference”. The “specific uptakes of [^123I]ADAM after pretreatment with methylphenidate HCl versus not pretreated (conclusion)” value with serotonin transporter (midbrain, thalamus, striatum and frontal cortex) was “no big changes”. Also, the “[^123I]ADAM SURs after pretreatment with methylphenidate HCl” value in the assay with serotonin transporter (striatum, thalamus and midbrain, dual-isotopes, methylphenidate HCl 1 mg/kg) is given as “no big changes”.
